Target: T1, GLP-1 Receptor (Homo sapiens, UniProt P43220)
T1 construct: host or cells: HEK293/CRE-Luc (HEK293/GLPIR/CRE-LUC)
Experiment: GLP-1R agonist cAMP stimulation assay
Assay type: cell-based
Settings: HEK293/CRE-Luc cell line stably expressing the GLP-1 Receptor; 30 min incubation; cAMP dynamic 2 Kit (Cisbio)
Procedure: Activation of GLP-1 receptor is known to stimulate cyclic AMP (cAMP) production in cells which indicates primary coupling to the Gas subunit of the G protein heterotrimeric complex.
To optimize functional activity directed toward Gas coupling, a HEK293/CRE-Luc cell line developed by HDB stably expressing the GLP-1 Receptor was used. 200× concentration of compound working solutions were prepared (Agilent Technologies Bravo) with ½ log serial dilution in 384-well Echo LDV plate (Labcyte, Cat #LP-0200). 50 nL/well 200× concentration of compound working solutions were moved to 384-well white low volume plate (Greiner, Cat #784075) using Labcyte ECHO550. 1×10^5 cells/mL HEK293/GLPIR/CRE-LUC (HD Biosciences) cell suspensions prepared with assay buffer [DPBS containing 0.5 mM IBMX (Sigma, Cat #15879) and 0.10% BSA (GENVIEW, Cat #FA016-100g)], 10 μL cell suspensions were added to each well of previous generated assay plate which already contains 50 nL compound at 200× concentration using ThermoFisher Multidrop Combi (1000 cells/well). Seal the plate and incubate at 37° C. with 5% CO2 for 30 min.
After incubation the cAMP assay signal was generated using cAMP dynamic 2 Kit (Cisbio). 5 μL cAMP-d2 working solution was added to each well, followed with 5 μL Anti-cAMP antibody-cryptate working solution added to each well using ThermoFisher Multidrop Combi. Incubate at room temperature for 1 hour protected from light. Read the fluorescence at 665 and 615 nm with Reader PerkinElmer EnVision.

T1 sequence (P43220 24-463, species assumed): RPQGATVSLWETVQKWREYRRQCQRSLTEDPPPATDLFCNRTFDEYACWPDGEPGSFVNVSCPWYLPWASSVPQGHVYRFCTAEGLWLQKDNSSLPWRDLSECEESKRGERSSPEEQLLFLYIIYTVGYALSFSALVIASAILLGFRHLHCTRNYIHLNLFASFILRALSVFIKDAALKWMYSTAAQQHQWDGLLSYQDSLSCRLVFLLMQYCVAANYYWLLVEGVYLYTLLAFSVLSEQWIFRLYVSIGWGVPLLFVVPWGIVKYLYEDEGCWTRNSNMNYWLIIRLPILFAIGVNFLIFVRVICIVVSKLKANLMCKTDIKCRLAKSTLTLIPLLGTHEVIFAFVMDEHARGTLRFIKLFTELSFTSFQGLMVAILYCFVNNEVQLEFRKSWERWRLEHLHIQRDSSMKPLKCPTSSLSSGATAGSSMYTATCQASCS

| EC50 [µM] | Compound |
| --- | --- |
| < 0.001 | C[C@]1(c2ccc(C(N)=O)cc2F)Oc2cccc(C3CCN(Cc4ncc(-c5nnc(C(F)(F)F)[nH]5)cc4CC4(C#N)CC4)CC3)c2O1 [A-1] |
| 0.001 to 0.1 | CC1(c2ccc(C(=O)O)cc2F)Oc2cccc(C3CCN(Cc4ncc(-c5nnc(C(F)(F)F)[nH]5)cc4CC4(C#N)CC4)CC3)c2O1 (stereo not shown) [A-3] |
| < 0.001 | C[C@]1(c2ccc(Cl)cc2F)Oc2cccc(C3CCC(Cc4ncc(-c5nnc(C(N)=O)[nH]5)cc4CC4(C#N)CC4)CC3)c2O1 (stereo partly shown) [B-1] |
| < 0.001 | N#CC1(Cc2cc(-c3nc(C(F)(F)F)n[nH]3)cnc2CN2CCC(c3ccc4cnn(Cc5ccc(Cl)cc5F)c4n3)CC2)CC1 [C-1] |
| 0.001 to 0.1 | COCCNC(=O)c1cnc(CN2CCC(c3cccc4c3O[C@@](C)(c3ccc(Cl)cc3F)O4)CC2)c(CC2(C#N)CC2)c1 [D-3] |
| 0.001 to 0.1 | CNC(=O)c1cnc(CN2CCC(c3cccc4c3O[C@@](C)(c3ccc(Cl)cc3F)O4)CC2)c(CC2(C#N)CC2)c1 [D-4] |
| > 0.1 | C[C@]1(c2ccc(Cl)cn2)Oc2cccc(C3CCN(Cc4ncc(C(=O)NC5(C#N)CC5)cc4CC4(C#N)CC4)CC3)c2O1 [D-6] |
| > 0.1 | N#CC1(Cc2cc(C(=O)NC3(C#N)CC3)cnc2CN2CCC(c3ccc(F)c(OCc4ccc(Cl)cc4F)n3)CC2)CC1 [D-7] |
| < 0.001 | COCCNC(=O)c1nnc(-c2cnc(CN3CCC(c4cccc5c4O[C@@](C)(c4ccc(Cl)cc4F)O5)CC3)c(CC3(C#N)CC3)c2)[nH]1 [E-3] |
| < 0.001 | CNC(=O)c1nnc(-c2cnc(CN3CCC(c4cccc5c4O[C@@](C)(c4ccc(Cl)cc4F)O5)CC3)c(CC3(C#N)CC3)c2)[nH]1 [E-4] |
| < 0.001 | C[C@]1(c2ccc(Cl)cc2F)Oc2cccc(C3CCN(Cc4ncc(-c5nnc(C(=O)NC6CC6)[nH]5)cc4CC4(C#N)CC4)CC3)c2O1 [E-5] |
| 0.001 to 0.1 | Cc1cc(-c2nnc(-c3cccnc3)[nH]2)cnc1CN1CCC(c2cccc3c2O[C@@](C)(c2ccc(Cl)cc2F)O3)CC1 [E-6] |
| 0.001 to 0.1 | Cc1cc(-c2csc(C(=O)O)n2)cnc1CN1CCC(c2cccc3c2OC(C)(c2ccc(Cl)cc2F)O3)CC1 (stereo not shown) [E-7] |
| 0.001 to 0.1 | Cc1cc(-c2cc(C(=O)O)n[nH]2)cnc1CN1CCC(c2cccc3c2OC(C)(c2ccc(Cl)cc2F)O3)CC1 (stereo not shown) [E-8] |
| 0.001 to 0.1 | Cc1cc(-c2cnc(C(=O)O)s2)cnc1CN1CCC(c2cccc3c2OC(C)(c2ccc(Cl)cc2F)O3)CC1 (stereo not shown) [E-9] |
| > 0.1 | Cc1cc(-c2nnc(C3CCCOC3)[nH]2)cnc1CN1CCC(c2cccc3c2O[C@@](C)(c2ccc(Cl)cc2F)O3)CC1 (stereo partly shown) [E-10] |
| > 0.1 | COCCc1cc(-c2nnc(C(=O)O)[nH]2)cnc1CN1CCC(c2cccc3c2O[C@@](C)(c2ccc(Cl)cc2F)O3)CC1 [E-11] |

| EC50 [µM] | Compound |
| --- | --- |
| > 0.1 | Cc1cc(-c2noc(-c3cccnc3)n2)cnc1CN1CCC(c2cccc(OCc3ccc(Cl)cc3F)n2)CC1 [E-12] |
| > 0.1 | Cc1cc(-c2ccncc2)cnc1CN1CCC(c2cccc3c2OC(C)(c2ccc(Cl)cc2F)O3)CC1 (stereo not shown) [E-14] |
| > 0.1 | Cc1cc(-c2nc(-c3cccnc3)no2)cnc1CN1CCC(c2cccc(OCc3ccc(Cl)cc3F)n2)CC1 [E-15] |
| > 0.1 | Cc1cc(-c2nnc(-c3cccnc3)s2)cnc1CN1CCC(c2cccc(OCc3ccc(Cl)cc3F)n2)CC1 [E-16] |
| > 0.1 | Cc1cc(-c2nc(C(=O)O)cs2)cnc1CN1CCC(c2cccc3c2OC(C)(c2ccc(Cl)cc2F)O3)CC1 (stereo not shown) [E-17] |
| 0.001 to 0.1 | COCCc1cc(-c2nnc(C(=O)OC)[nH]2)cnc1CN1CCC(c2cccc3c2O[C@@](C)(c2ccc(Cl)cc2F)O3)CC1 [E-18] |
| < 0.001 | C[C@]1(c2ccc(Cl)cc2F)Oc2cccc(C3CCN(Cc4ncc(-c5nnc(C(=O)O)[nH]5)cc4CC4(C#N)CC4)CC3)c2O1 [E-19] |
| < 0.001 | C[C@]1(c2ccc(Cl)cc2F)Oc2cccc(C3CCN(Cc4ncc(-c5nnc(C(F)(F)F)[nH]5)cc4N4CCOCC4)CC3)c2O1 [F-1, 4-[2-({4-[(2S)-2-(4-chloro-2-fluorophenyl)-2-methyl-2H-1,3-benzodioxol-4-yl]piperidin-1-yl}methyl)-5-[5-(trifluoromethyl)-4H-1,2,4-triazol-3-yl]pyridin-3-yl]morpholine] |
| 0.001 to 0.1 | C[C@]1(c2ccc(Cl)cc2F)Oc2cccc(C3CCN(Cc4ncc(-c5nnc(C(F)(F)F)[nH]5)cc4N4CCOC4=O)CC3)c2O1 [F-2, 3-[2-({4-[(2S)-2-(4-chloro-2-fluorophenyl)-2-methyl-2H-1,3-benzodioxol-4-yl]piperidin-1-yl}methyl)-5-[5-(trifluoromethyl)-4H-1,2,4-triazol-3-yl]pyridin-3-yl]-1,3-oxazolidin-2-one] |
| 0.001 to 0.1 | CC1COCCN1c1cc(-c2nnc(C(F)(F)F)[nH]2)nnc1CN1CCC(c2cccc3c2O[C@@](C)(c2ccc(Cl)cc2F)O3)CC1 (stereo partly drawn) [F-3, 4-[3-({4-[(2S)-2-(4-chloro-2-fluorophenyl)-2-methyl-2H-1,3-benzodioxol-4-yl]piperidin-1-yl}methyl)-6-[5-(trifluoromethyl)-4H-1,2,4-triazol-3-yl]pyridazin-4-yl]-3-methylmorpholine] |
| 0.001 to 0.1 | COCCNc1cc(-c2nnc(C(F)(F)F)[nH]2)cnc1CN1CCC(c2cccc3c2O[C@@](C)(c2ccc(Cl)cc2F)O3)CC1 [F-4, 2-({4-[(2S)-2-(4-chloro-2-fluorophenyl)-2-methyl-2H-1,3-benzodioxol-4-yl]piperidin-1-yl}methyl)-N-(2-methoxyethyl)-5-[5-(trifluoromethyl)-4H-1,2,4-triazol-3-yl]pyridin-3-amine] |
| 0.001 to 0.1 | C[C@]1(c2ccc(Cl)cc2F)Oc2cccc(C3CCN(Cc4ncc(-c5nnc(C(F)(F)F)[nH]5)cc4N4CC5CC4CO5)CC3)c2O1 (stereo partly drawn) [F-5, 5-[2-({4-[(2S)-2-(4-chloro-2-fluorophenyl)-2-methyl-2H-1,3-benzodioxol-4-yl]piperidin-1-yl}methyl)-5-[5-(trifluoromethyl)-4H-1,2,4-triazol-3-yl]pyridin-3-yl]-2-oxa-5-azabicyclo[2.2.1]heptane] |
| 0.001 to 0.1 | C[C@]1(c2ccc(Cl)cc2F)Oc2cccc(C3CCN(Cc4ncc(-c5nnc(C(F)(F)F)[nH]5)cc4C4CCOCC4)CC3)c2O1 [F-6, (S)-2-((4-(2-(4-chloro-2-fluorophenyl)-2-methylbenzo[d][1,3]dioxol-4-yl)piperidin-1-yl)methyl)-3-(tetrahydro-2H-pyran-4-yl)-5-(5-(trifluoromethyl)-4H-1,2,4-triazol-3-yl)pyridine] |
| 0.001 to 0.1 | C[C@]1(c2ccc(Cl)cc2F)Oc2cccc(C3CCN(Cc4ncc(-c5nnc(C(F)(F)F)[nH]5)cc4N4CCC(O)C4)CC3)c2O1 (stereo partly drawn) [F-7, 1-[2-({4-[(2S)-2-(4-chloro-2-fluorophenyl)-2-methyl-2H-1,3-benzodioxol-4-yl]piperidin-1-yl}methyl)-5-[5-(trifluoromethyl)-4H-1,2,4-triazol-3-yl]pyridin-3-yl]pyrrolidin-3-ol] |
| 0.001 to 0.1 | C[C@]1(c2ccc(Cl)cc2F)Oc2cccc(C3CCN(Cc4nnc(-c5nnc(C(F)(F)F)[nH]5)cc4N4CCOC5(CC5)C4)CC3)c2O1 [F-8, (S)-7-(3-((4-(2-(4-chloro-2-fluorophenyl)-2-methylbenzo[d][1,3]dioxol-4-yl)piperidin-1-yl)methyl)-6-(5-(trifluoromethyl)-4H-1,2,4-triazol-3-yl)pyridazin-4-yl)-4-oxa-7-azaspiro[2.5]octane] |
| 0.001 to 0.1 | C[C@]1(c2ccc(Cl)cc2F)Oc2cccc(C3CCN(Cc4ncc(-c5nnc(C(F)(F)F)[nH]5)cc4N4CCNC(=O)C4)CC3)c2O1 [F-9] |
| 0.001 to 0.1 | C[C@]1(c2ccc(Cl)cc2F)Oc2cccc(C3CCN(Cc4ncc(-c5nnc(C(F)(F)F)[nH]5)cc4C4CCCOC4)CC3)c2O1 (stereo partly shown) [F-10] |
